Where “and” joins values, the source holds several entries; their conditions need not be identical. Equal values may be shown once.
These compounds were tested against T1, hENT1 (Homo sapiens, UniProt Q99808) (assay: [3H]NBTI displacement assay on erythrocyte membranes). Settings: 1 µM inhibitor; [3H]NBTI displacement; mean (individual values) of two experiments.
T1 construct: performed on erythrocyte cell membranes endogenously expressing the transporter; tissue Sanquin Bloedvoorziening, Amsterdam, The Netherlands; host or cells: erythrocyte membranes (endogenous expression)
T1 sequence (Q99808 1-456): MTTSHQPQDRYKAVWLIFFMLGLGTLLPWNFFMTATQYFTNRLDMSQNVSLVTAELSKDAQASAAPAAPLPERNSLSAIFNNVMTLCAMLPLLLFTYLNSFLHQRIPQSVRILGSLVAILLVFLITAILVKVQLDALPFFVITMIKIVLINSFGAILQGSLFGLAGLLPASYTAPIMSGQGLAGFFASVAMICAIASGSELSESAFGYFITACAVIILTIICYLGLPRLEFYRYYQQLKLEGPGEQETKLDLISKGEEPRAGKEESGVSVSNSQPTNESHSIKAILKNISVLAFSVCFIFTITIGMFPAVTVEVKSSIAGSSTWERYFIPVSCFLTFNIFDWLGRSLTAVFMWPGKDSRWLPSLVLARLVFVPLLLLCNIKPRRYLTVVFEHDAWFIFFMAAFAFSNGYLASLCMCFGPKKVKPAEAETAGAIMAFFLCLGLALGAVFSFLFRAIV
Format: binding
Method: Dilazep and ST7092 were obtained from ASTA-Werke AG (Bielefeld, Germany) and Chemie Linz AG (Linz, Austria), respectively. Radioligand displacement assays were performed as previously described. In brief, the experiments were performed on erythrocyte membranes (Sanquin Bloedvoorziening, Amsterdam, The Netherlands) using a single concentration of 1 µM or multiple concentrations (ranging from 10^–10 to 10^–6) of unlabeled inhibitors in the presence of 4 nM [^3H]NBTI at 10 °C for 1 h in assay buffer (50 mM Tris–HCl, pH 7.4, 0.1% w/v CHAPS). Non-specific binding (NSB) was assessed with 10 µM unlabeled NBTI. […] Subsequently, [^3H]NBTI was added to the preincubated and control samples (containing erythrocyte membranes, unlabeled inhibitor and radioligand) and both types of samples were incubated for another hour. Incubation was terminated by rapid vacuum filtration over Whatman™ UniFilter™ 96-well GF/C microplates using a FilterMate™ Universal Harvester (PerkinElmer, Groningen, The Netherlands). Subsequently, the plates were washed ten times with ice-cold wash buffer (50 mM Tris–HCl, pH 7.4). Thereafter, the filters were dried for 45 min at 55 °C and 25 µL of Microscint (PerkinElmer) was added per well. The filter-bound radioactivity was determined by scintillation spectrometry using a MicroBeta^2 2450 Microplate Counter (PerkinElmer).
For data analysis, dilazep and ST7092 were used as positive controls. All experimental data was analyzed using GraphPad Prism 10.0.2 software (GraphPad Software Inc., San Diego, CA, USA). [^3H]NBTI assays were baseline-corrected with NSB and normalized to this value (0%) and TB (100%). The radioligand displacement curves were fitted to a one-site binding model by nonlinear regression from which the pIC50 values were obtained. […] Data shown represent the mean ± SD of at least two or mean ± SEM of at least three individual experiments each performed in duplicate.
To determine the affinities of the non-covalent hENT1 inhibitors, a [^3H]NBTI displacement assay was performed on erythrocyte cell membranes endogenously expressing the transporter. All compounds were initially screened at a concentration of 1 µM to provide the percentage displacement. If more than 75% displacement was observed, compounds were subsequently characterized in full concentration-effect curves to determine their affinity.
“3-(4-(3-((3-(methylamino)benzoyl)oxy)propyl)piperazin-1-yl)propyl 3,4,5-trimethoxybenzoate [Compound 6j]” was tested, and the “% displacement at 1 μM” value was 17 (16, 19) %.
With “3-(4-(3-((4-(methylamino)benzoyl)oxy)propyl)piperazin-1-yl)propyl 3,4,5-trimethoxybenzoate [Compound 6i]” the “% displacement at 1 μM” value was 6 (3, 9) %.
With COc1cc(C(=O)OCCCN2CCN(CCCOC(=O)c3ccccc3)CC2)cc(OC)c1OC [Compound 6a, 3-(4-(3-(benzoyloxy)propyl)piperazin-1-yl)propyl 3,4,5-trimethoxybenzoate] the “% displacement at 1 μM” value was -3 (0, -5) %.
COc1cc(C(=O)OCCCN2CCN(CCCOC(=O)c3ccc(C)cc3)CC2)cc(OC)c1OC [Compound 6b, 3-(4-(3-((4-methylbenzoyl)oxy)propyl)piperazin-1-yl)propyl 3,4,5-trimethoxybenzoate] was tested, and the “% displacement at 1 μM” value was 7 (10, 3) %.
COc1cc(C(=O)OCCCN2CCN(CCCOC(=O)c3ccc(C)c(C)c3)CC2)cc(OC)c1OC [Compound 6c, 3-(4-(3-((3,4-dimethylbenzoyl)oxy)propyl)piperazin-1-yl)propyl 3,4,5-trimethoxybenzoate] was tested, and the “% displacement at 1 μM” value was -7 (-7, -8) %.
In the case of COc1cc(C(=O)OCCCN2CCN(CCCOC(=O)c3cc(C)cc(C)c3)CC2)cc(OC)c1OC [Compound 6d, 3-(4-(3-((3,5-dimethylbenzoyl)oxy)propyl)piperazin-1-yl)propyl 3,4,5-trimethoxybenzoate], the “% displacement at 1 μM” value is reported as -4 (-4, -4) %.
COc1cc(C(=O)OCCCN2CCN(CCCOC(=O)c3ccc(Cl)cc3)CC2)cc(OC)c1OC [Compound 6e, 3-(4-(3-((4-chlorobenzoyl)oxy)propyl)piperazin-1-yl)propyl 3,4,5-trimethoxybenzoate] was tested, and the “% displacement at 1 μM” value was “not able to inhibit [^3H]NBTI binding and 1 (3, -1) %”.
For COc1cc(C(=O)OCCCN2CCN(CCCOC(=O)c3ccc(Cl)c(Cl)c3)CC2)cc(OC)c1OC [Compound 6f, 3-(4-(3-((3,4-dichlorobenzoyl)oxy)propyl)piperazin-1-yl)propyl 3,4,5-trimethoxybenzoate], the “% displacement at 1 μM” value was -4 (-7, -1) %.
For COc1cc(C(=O)OCCCN2CCN(CCCOC(=O)c3cccc(N(C)C)c3)CC2)cc(OC)c1OC [Compound 6g, 3-(4-(3-((3-(dimethylamino)benzoyl)oxy)propyl)piperazin-1-yl)propyl 3,4,5-trimethoxybenzoate], the “% displacement at 1 μM” value was 21 (21, 21) %.
For COc1cc(C(=O)OCCCN2CCN(CCCOC(=O)c3ccc(N(C)C)cc3)CC2)cc(OC)c1OC [Compound 6h, 3-(4-(3-((4-(dimethylamino)benzoyl)oxy)propyl)piperazin-1-yl)propyl 3,4,5-trimethoxybenzoate], the “% displacement at 1 μM” value was 19 (11, 26) %.
COc1ccccc1C(=O)OCCCN1CCN(CCCOC(=O)c2cc(OC)c(OC)c(OC)c2)CC1 [Compound 6k, 3-(4-(3-((2-methoxybenzoyl)oxy)propyl)piperazin-1-yl)propyl 3,4,5-trimethoxybenzoate] was tested, and the “% displacement at 1 μM” value was “little to no displacement and 6 (5, 8) %”.
COc1cccc(C(=O)OCCCN2CCN(CCCOC(=O)c3cc(OC)c(OC)c(OC)c3)CC2)c1 [Compound 6l, 3-(4-(3-((3-methoxybenzoyl)oxy)propyl)piperazin-1-yl)propyl 3,4,5-trimethoxybenzoate] was tested, and the “% displacement at 1 μM” value was “little to no displacement and 9 (3, 16) %”.
In the case of COc1ccc(C(=O)OCCCN2CCN(CCCOC(=O)c3cc(OC)c(OC)c(OC)c3)CC2)cc1 [Compound 6m, 3-(4-(3-((4-methoxybenzoyl)oxy)propyl)piperazin-1-yl)propyl 3,4,5-trimethoxybenzoate], the “% displacement at 1 μM” value is reported as “around 30% and 36 (39, 33) %”.
In the case of COc1ccccc1C(=O)OCCCN1CCN(CCCOC(=O)c2ccccc2OC)CC1 [Compound 6p, piperazine-1,4-diylbis(propane-3,1-diyl) bis(2-methoxybenzoate)], the “% displacement at 1 μM” value is reported as 7 (15, -1) %.
COc1cccc(C(=O)OCCCN2CCN(CCCOC(=O)c3cccc(OC)c3)CC2)c1 [Compound 6q, piperazine-1,4-diylbis(propane-3,1-diyl) bis(3-methoxybenzoate)] was tested, and the “% displacement at 1 μM” value was 8 (11, 4) %.
With COc1ccc(C(=O)OCCCN2CCN(CCCOC(=O)c3ccc(OC)cc3)CC2)cc1 [Compound 6r, piperazine-1,4-diylbis(propane-3,1-diyl) bis(4-methoxybenzoate)] the “% displacement at 1 μM” value was -8 (-5, -11) %.
With COc1ccc(C(=O)OCCCN2CCN(CCCOC(=O)c3ccc(OC)c(OC)c3)CC2)cc1OC [Compound 6s, piperazine-1,4-diylbis(propane-3,1-diyl) bis(3,4-dimethoxybenzoate)] the “% displacement at 1 μM” value was “around 30% and 27 (33, 21) %”.
With COc1cc(OC)cc(C(=O)OCCCN2CCN(CCCOC(=O)c3cc(OC)cc(OC)c3)CC2)c1 [Compound 6t, piperazine-1,4-diylbis(propane-3,1-diyl) bis(3,5-dimethoxybenzoate)] the “% displacement at 1 μM” value was “little to no displacement and 8 (12, 4) %”.
In the case of COc1ccc(C(=O)OCCCN2CCN(CCCOC(=O)c3ccccc3OC)CC2)cc1OC [Compound 6u, 3-(4-(3-((2-methoxybenzoyl)oxy)propyl)piperazin-1-yl)propyl 3,4-dimethoxybenzoate], the “% displacement at 1 μM” value is reported as “little to no displacement and 12 (16, 9) %”.
With COc1cc(OC)cc(C(=O)OCCCN2CCN(CCCOC(=O)c3ccc(OC)c(OC)c3)CC2)c1 [Compound 6v, 3-(4-(3-((3,5-dimethoxybenzoyl)oxy)propyl)piperazin-1-yl)propyl 3,4-dimethoxybenzoate] the “% displacement at 1 μM” value was “around 30% and 34 (42, 26) %”.

Same assay, conditions: compared to ST7092
COc1ccc(C(=O)OCCCN2CCN(CCCOC(=O)c3cc(OC)c(OC)c(OC)c3)CC2)cc1OC [Compound 6n, 3-(4-(3-((3,4-dimethoxybenzoyl)oxy)propyl)piperazin-1-yl)propyl 3,4,5-trimethoxybenzoate] was tested, and the “decrease in affinity compared to ST7092” value was 80 fold.
COc1cc(OC)cc(C(=O)OCCCN2CCN(CCCOC(=O)c3cc(OC)c(OC)c(OC)c3)CC2)c1 [Compound 6o, 3-(4-(3-((3,5-dimethoxybenzoyl)oxy)propyl)piperazin-1-yl)propyl 3,4,5-trimethoxybenzoate] was tested, and the “decrease in affinity compared to ST7092” value was 80 fold.

Same assay, conditions: erythrocyte membranes, 4 nM [3H]NBTI, 10 °C, 1 h
In the case of COc1ccc(C(=O)OCCCN2CCN(CCCOC(=O)c3cc(OC)c(OC)c(OC)c3)CC2)cc1OC [Compound 6n, 3-(4-(3-((3,4-dimethoxybenzoyl)oxy)propyl)piperazin-1-yl)propyl 3,4,5-trimethoxybenzoate], the Ki is reported as 136 nM.
Compound COc1cc(OC)cc(C(=O)OCCCN2CCN(CCCOC(=O)c3cc(OC)c(OC)c(OC)c3)CC2)c1 [Compound 6o, 3-(4-(3-((3,5-dimethoxybenzoyl)oxy)propyl)piperazin-1-yl)propyl 3,4,5-trimethoxybenzoate] has a Ki of 146 nM.
Compound COc1cc(C(=O)OCCCN2CCN(CCCOC(=O)c3cc(OC)c(OC)c(OC)c3)CC2)cc(OC)c1OC [ST7092, reference compound] has a Ki of 1.79 nM.
